From paper PMC9503608, “An Insight into Symmetrical Cyanine Dyes as Promising Selective Antiproliferative Agents in Caco-2 Colorectal Cancer Cells” (Molecules, 2022)

Assays:
Type in all cases: cell-based, human
[1] = MTT cell viability assay, Caco-2; details: human, Caco-2, Caco-2 versus NHDF, 72 h; read-out: SI Caco-2 (selectivity index, cancer versus NHDF)
Description: (§1) Caco-2, MCF-7, PC-3, and NHDF cell lines were obtained from the American Type Culture Collection (ATCC) and maintained in 75 cm^2 culture flasks in a humidified atmosphere at 37 °C with 5% carbon dioxide using a LEEC Culture Safe Precision CO2 Incubator. The culture media was renewed every two to three days. The NHDF cell line was cultured in Roswell Park Memorial Institute (RPMI) medium supplemented with 10% of inactivated fetal bovine serum (FBS), 2 mM of L-glutamine, 10 mM of 4-(2-hydroxyethyl)-1-piperazineethanesulfonic acid (HEPES), 1 mM of sodium pyruvate, and 1% of antibiotic/antimycotic mixture (Ab; 10,000 U/mL of penicillin G, […] of streptomycin, and 25 µg/mL of amphotericin B). The PC-3 cell line was also cultured in RPMI 1640 medium supplemented with 10% inactivated FBS and 1% of an antibiotic mixture (Sp; 10,000 U/mL of penicillin G and […] of streptomycin). The Caco-2 and MCF-7 cell lines were grown in Dulbecco’s Modified Eagle Medium (DMEM). Caco-2 was supplemented with 20% of inactivated FBS and 1% of Sp. On the other hand, the MCF-7 medium was complemented with 10% of inactivated FBS and 1% of Ab. All manipulations were performed in a Labculture Class II A2 Biological Safety Cabinet.
(§2) After the near confluency of cultures, cells were detached with a solution of 0.125 g/L trypsin and 0.02 g/L ethylenediaminetetracetic acid (EDTA), counted using the trypan blue method, resuspended, and seeded in 96-well culture plates (100 µL, 2 × 10^4 cells/mL). Following 48 h of adherence, cells were treated with the test solutions and incubated for 72 h. This incubation, as well as the solution manipulations, were performed in an environment protected from light. After the incubation, the medium was replaced with a fresh incomplete culture medium (without FBS and Ab or Sp) and MTT solution (5 mg/mL in phosphate buffer saline (PBS)). After additional incubation for 4 h, the MTT medium was removed, formazan crystals were dissolved in DMSO, and the optical density of each well was measured at 570 nm using a microplate spectrophotometer Bio-Rad xMark. Untreated cells were used as a negative control and 5-FU as the positive control. The results were expressed as the relative cell proliferation relative to the negative control cells. […] To determine the IC50 values, Caco-2, MCF-7, PC-3, and NHDF cells were exposed to increasing concentrations between 0.001 and 100 μM.

[2] = test system: Caco-2 colorectal adenocarcinoma cell line; assay: MTT cell viability assay, Caco-2; details: Homo sapiens, Caco-2, 72 h
Description: as §1, §2

[3] = test system: MCF-7 breast adenocarcinoma cell line; assay: MTT cell viability assay, MCF-7; details: Homo sapiens
Description: as §1, §2

NHDF cell line = assay: Photocytotoxicity evaluation (MTT after white LED light irradiation); details: 30 min white LED light versus dark
Description: The photocytotoxicity evaluation was performed on the NHDF cell line similar to the above MTT cell viability assay. In contrast to 72 h continuous incubation in the dark with test solutions, cells were subjected to 30 min of constant irradiation with white light from an RGBW LED projector (220–240 V and 30 W, Luxtar) after 48 h of incubation. This light source emits radiation at wavelengths suitable for the excitation of evaluated dye (see support information) with a total fluence rate of 1.196 W/sr·m^2 (measured with a pr-650 spectrascan spectroradiometer, Photo Research Inc., Chatsworth, CA, USA). During the photocytotoxicity treatment, the device was placed over the culture cell plates supported by a closed system at a distance of 12 cm. The maximum temperature of the exposure of the cells was 37 °C. After this irradiation, cells were incubated for an additional 24 h, making up a total of 72 h incubation and exposure to the test solutions. To check the validity of the light source, the squaraine dye 4, which was previously described with relevant photodynamic activity, was used as a positive control. A photocytotoxicity assay was performed in quadruplicate, and at least two independent assays were achieved.

Caco-2 cells [4] = assay: Apoptosis by propidium iodide staining and flow cytometry
Description: The apoptosis occurrence and influence of the dye 12 on the cell cycle were evaluated using propidium iodide (PI) staining and flow cytometry, as described by Riccardi and Nicolleti. After the near confluency of the culture, trypsinisation, and counting, Caco-2 cells were seeded (2 mL, 3 × 10^4 cells/mL) in 6-well plates. After 48 h of adherence, the cells were treated with the test solutions (3 mL and 5 mL for negative control) and incubated for 72 h. Untreated cells were used as the negative control, and sorbitol and 5-FU [56] were used as positive controls for the apoptosis and cell cycle distribution studies, respectively. After incubation, the supernatant was collected and the cells were washed with PBS and combined with the cells harvested using the trypsin treatment. This cell suspension was maintained on ice and centrifugated, and then the pellet was resuspended in 0.5 mL of PBS. The cells were fixed by adding 4.5 mL of 70% ethanol cooled at −20 °C and were stored at the same temperature. For the cytometry analysis, PBS was added to the fixed cells before centrifugation, and then the ethanolic supernatant was removed. The pellet was resuspended in 0.5 mL of PBS and 0.5 mL of DNA extraction (192 mL of 0.2 M sodium phosphate and 8 mL of […], pH 7.8) was added. After incubation for 5 min, the cells were centrifuged, the supernatant was removed, and the pellet resuspended in 0.3 mL of staining solution (20 µg/mL of PI and 0.2 mg/mL of DNase-free RNase in PBS). Using a FACSCalibur flow cytometer and the 488 nm laser line, a minimum of 20,000 events were recorded. Acquisition and apoptosis analysis was performed using BD CellQuestTM Pro 4.0.2 Software. Cell cycle analysis was performed with ModFit LT 5.0.9 software. To exclude debris and necrotic cells, events with a lower diameter (forward scatter; FCS) and reduced PI fluorescence (FL3) than the hypodiploid apoptotic cells were eliminated. Two independent experiments were performed.

Caco-2 cells [5] = assay: Morphological analysis by inverted microscopy; details: 72 h, 20 or 40× magnification, versus untreated cells
Description: After the near confluency of the culture, trypsinisation, and counting, Caco-2 cells were seeded (3 mL; 3 × 10^4 cells/mL) in 35 mm cell culture dishes with treatment for the tissue culture. Following 48 h of adherence, the cells were treated with the test solutions and incubated for 72 h in an environment protected from light. At every 24 h, cellular morphology was verified in an Olympus CKX41 SF inverted microscope with a 10, 20, or 40× objective, and the analysis was based on comparing the cells with and without treatment. Cell imaging was captured using a DC6V Olympus digital camera coupled to the microscope.

IC50 ([2]; 72 h of incubation, MTT, protected from light): 0.67 µM
IC50 ([3]; MCF7, 72 h of incubation, MTT, protected from light): 4.57 µM
morphological changes of Caco-2 cells (Caco-2 cells [5]; 1 µM): no visible differences
morphological changes of Caco-2 cells (Caco-2 cells [5]; 10 µM): evident contraction
Structure (SMILES): CN1C(=Cc2oc3ccccc3[n+]2C)Oc2ccccc21.Cc1ccc(S(=O)(=O)[O-])cc1 [Dye 12, 3-Methyl-2-((3-methylbenzo[d]oxazol-2(3H)-ylidene)methyl)benzo[d]oxazol-3-ium 4-methylbenzenesulfonate]
selectivity ratio at 72 h [1]: 20.9
viability at 10 µM ([2]; single concentration of 10 µM, 72 h, mean ± SD, read-out: cell viability percentage in relation with control, Caco-2): 10 ± 0.93%
viability at 10 µM ([3]; MCF7, 72 h, single concentration of 10 µM, 72 h, mean ± SD, read-out: cell viability percentage in relation with control, MCF-7): 10.8 ± 1.98%
photocytotoxicity (irradiation influence on cytotoxicity) (NHDF cell line): total absence of photocytotoxicity
increase in apoptotic cells relative to untreated cells (Caco-2 cells [4]; Caco-2, 10 µM, 72 h): 2%
apoptosis induced (percent of cells) (Caco-2 cells [4]; Caco-2, dye 12 10 µM 72 h, sorbitol 600 mM 24 h): about 3%
